From PMC7503500, “A Structure-Activity Relationship Comparison of Imidazodiazepines Binding at Kappa, Mu, and Delta Opioid Receptors and the GABAA Receptor” (Molecules, 2020)
Where “and” joins values, the source holds several entries; their conditions need not be identical. Identical values can stand only once. Like-named read-outs stand apart in the source and are kept apart here.

Legend:
δ opioid receptor (DOR) = δ opioid receptor (DOR) (Homo sapiens, UniProt P41143); test: Radioligand competition binding, DOR ([3H]-DADLE), HEK293 cell homogenates; conditions: for inhibition at 10 µM: read-out: DOR % (percent inhibition), at 10,000 nM; for DOR % (percent inhibition): at 10,000 nM
µ opioid receptor (MOR) = µ opioid receptor (MOR) (Homo sapiens, UniProt P35372); test: Radioligand competition binding, MOR ([3H]-DAMGO), HEK293 cell homogenates; conditions: for inhibition at 10 µM: read-out: MOR % (percent inhibition), at 10,000 nM; for inhibition at 10 µM / MOR % (percent inhibition): [3H]-DAMGO; for MOR % (percent inhibition): at 10,000 nM
κ opioid receptor (KOR) = κ opioid receptor (KOR) (Homo sapiens, UniProt P41145); test: Radioligand competition binding, KOR ([3H]-U69593), HEK293 cell homogenates; conditions: for inhibition at 10 µM: read-out: KOR % (percent inhibition), at 10,000 nM; for inhibition at 10 µM / KOR % (percent inhibition): [3H]-U69593; for KOR % (percent inhibition): at 10,000 nM
[1] = tested on: synaptic benzodiazepine-sensitive receptors (BZR), GABAAR; test: 3H-flunitrazepam binding, rat brain homogenate; conditions: for BZR % (percent inhibition): at 10,000 nM; for Ki: read-out: BZR (Ki)
human KOR = target: T1, human KOR (Homo sapiens, UniProt P41145); test: cell-based
T1 construct: expressed in transfected cells; host or cells: HEK293T

[2] = set-up: method as in PMID 32511908; conditions: both phases; cited from earlier work
[3] = set-up: method as in PMID 32511908; conditions: cited from earlier work
activated microglia = tested on: activated microglia; set-up: method as in PMID 32511908; conditions: reversed by KOR antagonist norbinaltorphimine; cited from earlier work

Compound	inhibition at 10 µM (δ opioid receptor (DOR)) [%]	Ki (µ opioid receptor (MOR)) [nM]	inhibition at 10 µM (µ opioid receptor (MOR)) [%]	Ki (κ opioid receptor (KOR)) [nM]	Selectivity in respect to BZR binding (κ opioid receptor (KOR); KOR vs BZR Ki) [fold]	Opioid receptor selectivity in comparison to MOR (κ opioid receptor (KOR); KOR vs MOR Ki) [fold]	inhibition at 10 µM (κ opioid receptor (KOR)) [%]	BZR % (percent inhibition) [1] [%]	Ki [1] [nM]	Efficacy in comparison to full agonist salvinorin A (human KOR; BRET GαoA recruitment) [%]	EC50 (human KOR; BRET, n = 24, mean and SEM, read-out: EC50, recruitment of GαoA protein to KOR)	Agitation response in the formalin nociception test [2]	DOR % (percent inhibition) (δ opioid receptor (DOR)) [%]	MOR % (percent inhibition) (µ opioid receptor (MOR)) [%]	Impairment of sensorimotor coordination [3]	KOR % (percent inhibition) (κ opioid receptor (KOR)) [%]	Ki (κ opioid receptor (KOR); read-out: KOR (Ki), [3H]-U69593, HEK293 homogenates) [nM]	Production of nitric oxide (NO) by activated microglia (activated microglia)
C#Cc1ccc2c(c1)C(c1ccccc1F)=N[C@@H](C)c1c(C(=O)OC(C)(C)C)ncn1-2 [GL-I-30]	7	1850	54	27	6.5	68	95	96	177	100	32 nM and 32.3 nM							
CCc1noc(-c2ncn3c2[C@@H](C)N=C(c2ccccc2F)c2cc(C4CC4)ccc2-3)n1 [GL-IV-03]								65				alleviated the agitation response in both phases	67	25	without inducing impairment of sensorimotor coordination	91	232	reduced the production of nitric oxide (NO)
CCOC(=O)c1ncn2c1[C@@H](C)N=C(c1ccccc1F)c1cc(Br)ccc1-2 [SH-I-047]	0						82	84	238					16				
CCOC(=O)c1ncn2c1[C@H](C)N=C(c1ccccc1F)c1cc(Br)ccc1-2 [SH-I-048B]								61	96				0	0		95		
Fc1ccccc1C1=NCc2c(-c3cnco3)ncn2-c2ccc(Br)cc21 [SH-I-85]	33		16	162			91	99	11									
C#Cc1ccc2c(c1)C(c1ccccn1)=NCc1c(C(=O)O)ncn1-2 [SR-II-54]	1		8				9	80	69									
